Reference: ChEMBL document CHEMBL1156829 (Proc Natl Acad Sci U S A, 2008)

Tests used:
Plasmodium falciparum [1] = assay: NOVARTIS: Inhibition of Plasmodium falciparum 3D7 (drug-susceptible) proliferation in erythrocyte-based infection assay; type: functional, organism-based; conditions: Plasmodium falciparum, 3D7
Plasmodium falciparum [2] = assay: NOVARTIS: Inhibition of Plasmodium falciparum W2 (drug-resistant) proliferation in erythrocyte-based infection assay; type: functional, organism-based; conditions: Plasmodium falciparum, W2; read-out: EC50
[3] = NOVARTIS: Cytotoxicity against human hepatocellular carcinoma cell line (Huh7); type: toxicity, cell-based, Huh-7; conditions: Huh7 cells (hepatocellular carcinoma cell line)

Compound | EC50 (Plasmodium falciparum [1]) | EC50 (Plasmodium falciparum [2]) | CC50 [3]
CC(=O)Nc1ccc(NC2=C(N3CCCCC3)C(=O)c3ccccc3C2=O)cc1 | 52.8 nM | 111 nM | > 100000 nM
COc1cncc(-c2cncc(N3CCN(CCN(C)C)CC3)n2)c1 | 261 nM | 695 nM | > 10000 nM
O=c1c(=Cc2ccc(Cl)cc2)sc2nc3ccccc3n12 | > 436 nM | 190 nM | > 10000 nM
OCC(O)COc1cccc2ccccc12 (configuration not stated) | > 1050 nM | < 29.7 nM | > 11200 nM
CC(=O)N(Cc1ccc2c(c1)OCO2)C1CC(=O)N(c2ccccc2)C1=O (configuration not stated) | > 1250 nM | > 381 nM | > 10000 nM
O=C1CC(c2ccccc2)CC2=C1C(c1cccc(Cl)c1Cl)Nc1ccccc1N2 (configuration not stated) | 288 nM | 464 nM | > 78800 nM
COCCN(C(C)C(=O)NC(CN1CCCC1)c1ccccc1)S(=O)(=O)c1c(C)noc1C (configuration not stated) | 964 nM | 406 nM | > 11900 nM
Cc1ccccc1Nc1nc(NCc2ccco2)c2ccccc2n1 | 548 nM | 529 nM | 15600 nM
COc1ccc(-c2ncc([C@@H]3C[C@H]4CN(c5ccccc5)C(=O)[C@]45CCCN35)cn2)cc1 | 2260 nM | 995 nM | 29800 nM
Clc1ccccc1C[n+]1cc(-c2ccccc2)n2c1CCC2 | 2330 nM | 3470 nM | > 100000 nM
CC1(C)CC(NC(=O)C(=O)NC2CC(C)(C)N(O)C(C)(C)C2)CC(C)(C)N1O | > 1300 nM | > 784 nM | > 10000 nM
CCOC(=O)NC(=O)N1CCC(c2nc(-c3cc(C(C)(C)C)c(O)c(C(C)(C)C)c3)cs2)CC1 | 1660 nM | 1880 nM | > 10000 nM
COC(=O)NCCNC(=O)COC(c1cccs1)c1cccnc1Cl (configuration not stated) | 185 nM | 170 nM | > 10000 nM
c1ccc(-c2c3c(cc4ccccc24)C[N+]2(CCCC2)C3)cc1 | 1340 nM | 1730 nM | > 100000 nM
COc1ccc(-n2c(SCC(=O)Nc3cc(Cl)ccc3OC)nnc2-c2ccccc2)cc1 | > 1100 nM | < 1.06 nM | > 11400 nM
C1CCC(CN2CCc3nc(N4CCCCC4)sc3C2)CC1 | 254 nM | 83.2 nM | > 10000 nM
COc1ccc(CCN(C(=S)Nc2ccccc2)C2CC(=O)N(c3ccc(F)cc3)C2=O)cc1OC (configuration not stated) | > 1740 nM | 1560 nM | > 1910 nM

Compound | EC50 (Plasmodium falciparum [1]) | EC50 (Plasmodium falciparum [2]) | CC50 [3]
CCN(c1ccc(F)cc1)S(=O)(=O)c1ccc2[nH]cc(C(=O)NCCC(C)C)c(=O)c2c1 | > 1250 nM | > 1150 nM | > 10000 nM
CCOc1ccccc1-n1c(C(C)N(Cc2ccccc2)C(=O)Nc2ccccc2OC)nc2ccccc2c1=O (configuration not stated) | 484 nM | 397 nM | > 6650 nM
Cc1ccc(-n2c(-c3ccccc3)cc(C=NNC(=O)c3cccc(-n4c(C)ccc4C)c3)c2-c2ccccc2)cc1 | 867 nM | 684 nM | > 100000 nM
CCCCOc1ccc(C(=O)Oc2ccccc2-c2nc3cc(C)ccn3c2NC(C)(C)CC(C)(C)C)cc1 | 804 nM | 130 nM | > 10000 nM
O=C(CCCn1c(SCc2ccccc2F)nc2ccccc2c1=O)N1CCCC1 | 1060 nM | > 1440 nM | > 10000 nM
CC1CCN(C(=O)C2CCCN(S(=O)(=O)c3ccc4[nH]c(-c5ccccc5)nc4c3)C2)CC1 (configuration not stated) | > 12500 nM | 6030 nM | > 100000 nM
O=C(Nc1cnc2ccccc2c1)c1cccc(-n2cnnn2)c1 | 174 nM | 182 nM | > 10000 nM
COc1ccc(-[n+]2cc(-c3ccc(Br)cc3)n3c2SCCC3)cc1 | 609 nM | 172 nM | > 100000 nM
COc1cc(OC)c(N(C)S(=O)(=O)c2cccc(C(=O)OCC(=O)Nc3ccccc3C(C)=O)c2)cc1Cl | 8400 nM | 7310 nM | > 100000 nM
N#Cc1ccccc1Cn1nc(-c2cccnc2)oc1=O | > 12500 nM | 2380 nM | > 100000 nM
CCCCN1C(=O)/C(=C2/Sc3ccccc3N2C)SC1=Nc1cc(C)ccc1C | > 581 nM | > 175 nM | > 10000 nM
CCN(CC)CCN(Cc1cc2cc(OC)ccc2[nH]c1=O)C(=S)Nc1cccc(Cl)c1 | 1190 nM | 2190 nM | 23100 nM
C=CC1CN2CCC1CC2[C@@H](OC(=O)/C=C/c1ccc(Cl)cc1)c1ccnc2ccc(OC)cc12 (some centres not stated) | 272 nM | 252 nM | > 10000 nM
CC(c1nc2ccc(Cl)cc2c(=O)n1C)N1CCN(C(=O)C(C)(C)C)CC1 (configuration not stated) | 1470 nM | 860 nM | > 10000 nM
CCOC(=O)c1c(N=Cc2cccc(OC)c2O)sc2c1CCN(C)C2 | > 12500 nM | 744 nM | > 100000 nM
Cn1ccnc1C1CCCCN1C(=O)c1cc(COc2ccc(F)cc2Cl)on1 (configuration not stated) | 1830 nM | 673 nM | > 100000 nM
Cc1ccn2c(NC(C)(C)CC(C)(C)C)c(-c3ccccc3OC(=O)C(C)(C)CCl)nc2c1 | 699 nM | 76.3 nM | > 10000 nM
